Usually IC50 stands for the midpoint of a concentration-inhibition curve. Read a low IC50 as higher potency.

For one data set, the system named is Kp C3 KPC-3. Kind of data set: MIC of meropenem with or without DMSA or MSA (negative control strain, non-metallo carbapenemase KPC). The class given is cell-based, K. pneumoniae. The conditions noted are these: Kp C3 KPC-3 (negative control); DMSA or MSA at 3 mM. The protocol:
(§1) MICs of meropenem with of without DMSA or MSA Table 3
(§2) DMSA and MSA were used at a concentration of 3 mM each. A negative control was used as strain KpC3 producing the non- metallo carbapenemase KPC

In the next data set the target is T1, NDM-1 (Klebsiella pneumoniae, UniProt C7C422).
T1 construct: made in house
Nature of the data set: Inhibition of purified NDM-1 hydrolytic activity, UV spectrophotometry. The class given is biochemical. The text has this: (§3) Inhibitory properties of DMSA and EDTA were also compared in-vitro by UV spectrophotometry using purified NDM-1 protein and carbapenems as substrates. E. coli TOP10 pCR2.1-(PNDM-1-blaNDM-1-bleMBL), expressing the blaNDM-1 gene with its original promoter (PNDM-1) cloned into a pTOPO multicopy plasmid and expressed in E. coli TOP10 reference strain (Dortet et al. 2012) was used for preliminary assays in order to determine the most efficient of DMSA being active against NDM producers.
Inhibition of NDM-1 by DMSA was assessed on a purified fraction of NDM-1, obtained as previously described for NDM-4 (Nordmann et al. 2012) with imipenem 100 µM as substrate.

The next data set deals with Kp NDM KIE. Nature of the data set: MIC of meropenem with or without DMSA or MSA. The note with it: DMSA or MSA at 3 mM. Type of data set: cell-based, K. pneumoniae. The protocol:
as §1, §2

For the next data set, the system named is Kp NDM IND. Kind of data set: MIC of meropenem with or without DMSA or MSA. The class given is cell-based, K. pneumoniae. The conditions noted are these: DMSA or MSA at 3 mM. The method, then:
as §1, §2

The next data set concerns Kp VIM KOW1. Kind of data set: MIC of meropenem with or without DMSA or MSA. Type of data set: cell-based, K. pneumoniae. The conditions noted are these: DMSA or MSA at 3 mM. The protocol:
as §1, §2

In data set [1] the test system is E. coli TOP10 pCR2.1-(PNDM-1-blaNDM-1-bleMBL). Nature of the data set: MIC of imipenem, broth microdilution in zinc-complemented M9CA minimum medium. Type of data set: cell-based.
Excerpt: as §3
MICs of imipenem was determined for E. coli TOP10 pCR2.1-(PNDM-1-blaNDM-1-bleMBL) in the presence of 0, 0.01, 0.1 or 1 mg/ml of Ca-EDTA or DMSA by using the broth microdilution method in zinc-complemented M9CA minimum medium (SD7025, Euromedex, France). M9CA minimal medium was used preferably to the standard Mueller Hinton broth in order to determine precisely the concentration of zinc in broth (ZnSO4, Sigma Aldrich, France, 5µg/ml (final concentration).
A 100 mM DMSA stock solution (Sigma Aldrich, France) (pH 5.0) was prepared in 0.2 M NaOH as recommended (Maiorino et al. 1990) and pH was neutralized to pH 7.0 with NaHCO3 Na2Ca-EDTA (Sigma Aldrich, France) dissolved in water.
(In broth dilution the organism is exposed to a series of concentrations in liquid medium.)

For a further data set, the system named is IMP-like producers. Nature of the data set: MIC of carbapenems, summary over IMP producers (n=9). Type of data set: cell-based. The method, then: (§4) The strains were as follows: VIM producers (n=10), IMP producers (n=9), NDM-1 producers (n=10). The selected concentration of DMSA was 10-fold (0.3 mM) and 100-fold (3 mM) that of the human peak serum concentration after oral administration (Asiedu et al;, 1995), and that of Ca-EDTA was assayed at the fixed concentration of 0.2 mM (Table 2). The MICs of carbapenems varied widely among isolates producing a same carbapenemase type. DMSA at 3 mM lowered the MICs of imipenem and ertapenem of IMP-like producers (100% of the tested isolates), and VIM-like producers (70 to 80 % of the tested isolates). […]

For the next data set, the target named is IMP-1 (Serratia marcescens, UniProt P52699). The note with it: 20 microM; cited from earlier work.
For the next data set, the system named is NDM-like producers. Kind of data set: MIC of carbapenems, summary over NDM producers (n=10). Type of data set: cell-based. The conditions noted are these: DMSA at 3 mM. The protocol: as §4
A further data set concerns E. coli NDM FEK. Nature of the data set: MIC of meropenem with or without DMSA or MSA. The class given is cell-based. The conditions noted are these: DMSA or MSA at 3 mM. The method, then: (§5) DMSA reduced the MICs of ertapenem for bacteria producing NDM-1 though the synergy effect was weaker than that observed for bacteria producing IMP and VIM-type MBLs.
as §1, §2

For a further data set, the system named is E. coli NDM CHAN. Nature of the data set: MIC of meropenem with or without DMSA or MSA. The class given is cell-based. The note with it: DMSA or MSA at 3 mM. The method, then:
as §5, §1, §2

In another data set the test system is E. coli VIM KOW7. Nature of the data set: MIC of meropenem with or without DMSA or MSA. The conditions noted are these: DMSA or MSA at 3 mM. The class given is cell-based. The protocol: as §5, §1, §2
Another data set relates to E. coli NDM pCR2.1. Kind of data set: MIC of meropenem with or without DMSA or MSA. The conditions noted are these: E. coli NDM pCR2.1; DMSA or MSA at 3 mM. The class given is cell-based. The protocol:
as §5, §1, §2

For data set [2] the following is noted: after a single oral dose of DMSA (10 mg); cited from earlier work.

T1 sequence (C7C422 29-270, looked up): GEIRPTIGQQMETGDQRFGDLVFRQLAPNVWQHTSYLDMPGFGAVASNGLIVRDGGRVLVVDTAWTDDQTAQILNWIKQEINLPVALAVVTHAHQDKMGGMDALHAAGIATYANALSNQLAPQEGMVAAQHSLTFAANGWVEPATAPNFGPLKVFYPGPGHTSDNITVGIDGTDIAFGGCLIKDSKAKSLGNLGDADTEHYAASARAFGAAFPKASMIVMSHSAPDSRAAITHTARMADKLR
Sequence of IMP-1 (P52699 19-246 limits assumed): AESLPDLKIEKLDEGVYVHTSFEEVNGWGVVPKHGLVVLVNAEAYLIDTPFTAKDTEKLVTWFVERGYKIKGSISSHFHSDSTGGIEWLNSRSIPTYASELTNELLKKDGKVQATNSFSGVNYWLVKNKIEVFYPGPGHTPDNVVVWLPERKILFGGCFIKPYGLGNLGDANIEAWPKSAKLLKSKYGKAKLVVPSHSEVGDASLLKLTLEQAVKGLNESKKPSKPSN

As to `O=C(O)[C@@H](S)[C@@H](S)C(=O)O` [DMSA, meso-2,3-dimercaptosuccinic acid], the MIC of meropenem with Kp C3 KPC-3 was greater than 32 µg/mL; with Kp NDM KIE, 0.5 µg/mL; in the data set with Kp NDM IND, 4 µg/mL; in the data set with Kp VIM KOW1, 32 µg/mL; with E. coli NDM FEK, 4 µg/mL; in the data set on E. coli NDM CHAN it was 2 µg/mL. Further, the MIC of meropenem in the data set on E. coli VIM KOW7 is 0.25 µg/mL; in the data set with E. coli NDM pCR2.1 it was 8 µg/mL. Further, the IC50 against NDM-1 amounted to 1 mM. Further, the MIC of imipenem in data set [1] (DMSA 0 mg/ml (imipenem alone)) came to 12 µg/mL; in [1] (DMSA 0.01 mg/ml), 12 µg/mL; in data set [1] (DMSA 0.1 mg/ml) it was 12 µg/mL; in data set [1] (DMSA 1 mg/ml) it was 0.2 µg/mL. Besides, the “effect on the MICs of carbapenems” value with IMP-like producers (DMSA 0.3 mM, IMP-like producing isolates) is on record as “lowered the MICs of carbapenems for most IMP-like producing isolates”. The “tested isolates for which the MICs of imipenem and ertapenem were lowered” value in the data set with IMP-like producers (DMSA at 3 mM, IMP-like producers) is on record as 100%. Also, on IMP-1, the “inhibition of IMP-1” value is given as “inhibit”. Moreover, the “effect on the MIC values of imipenem” value in the data set with NDM-like producers was “did not significantly affect”. Also, the “tested isolates for which the MICs of ertapenem were reduced” value with NDM-like producers stood at 50%. Further, in data set [2], the “plasma concentrations of DMSA” value was “ca. 100 µM”.

The record behind these values is EP2979694B1, “Dimercaptosuccinic acid for the treatment of multidrug resistant bacterial infections” (priority 2014, dated 2016).
